Results reported in patent US20140123342A1, “Regulation of Stomatal Apertures by Apyrases and Extracellular Nucleotides” (BOARD OF REGENTS, THE UNIVERSITY OF TEXAS SYSTEM, priority 2011, published 2014).

Tests used:
Assay type in all cases: cell-based, Arabidopsis thaliana
[1] = system: stomata (guard cells) in epidermal peels; experiment: Stomatal aperture closure studies, epidermal peels in the light
Description: (§1) Stomatal Aperture Studies: Arabidopsis thaliana ecotypes Columbia (Col-0) and Wassilewskija (WS) were used as wild types in this study. Col-0, nia1nia2, atrbohD/F, R2-4A and WS plants were all grown on autoclaved Metro-Mix 200 soil at 22° C. under continuous light. The mutant seeds nia1nia2 nia2-5; CS 2356; Col-0 background) were obtained from Dr. N. M. Crawford (University of California at San Diego) and the mutant seeds atrbohD/F (Col-0 background) were obtained from Dr. J. M. Kwak (University of Maryland). The RNAi mutant apyrase line (R2-4A) is in WS background, so WS ecotype was used as the control wild type for these studies. Leaves from 2 to 3 week old Col-0 plants, or R2-4A and WS plants treated with 4 μM estradiol for 1 week after development of mature basal leaves were used for peel and whole leaf studies. Plants were placed in the dark and watered 24 h before an study. For opening studies, plants were used immediately after 24 h dark treatment and all treatments were done in the dark except for the light treated leaves or peels, thus the control stomata are dark controls. For closure studies, plants were placed in the light 3 h before an study to induce stomatal opening and all treatments were done in the light, thus the control stomata are light controls. For peel studies, epidermal peels were made from the underside of the leaf and treatments were applied to the peels for 1 h. For whole leaf studies, leaves were removed and treatments were applied for 2 h. For each treatment, about 3 or 4 peels collected from different leaves or 3 or 4 different leaves of at least two different plants were floated with the abaxial side up in petri dishes on 3 mL of Arabidopsis leaf buffer consisting of 10 mM KCl, 25 mM MES pH 6.15 (Melotto et al., 2006) and the chemical being tested. For whole leaf studies peels were collected after the treatment.
(§2) For studies testing the effects of ATPγS, ADPγS, AMPS, RB2, and PPADS (Sigma, St. Louis, Mo., USA) 20 mM stocks were made by dissolving the compounds in de-ionized water. For studies testing the effects of apyrase inhibitors, 7.5 mg/mL of NGXT191 and of inhibitor #13 (Windsor et al., 2002) was dissolved in dimethyl sulfoxide (DMSO) and then applied at a dilution of […] for a final concentration of 0.1% DMSO. ABA (Sigma, St. Louis, Mo., USA) was dissolved in ethanol in 10 mM stocks and then applied at a dilution of 1:1000. The stocks were stored at −20° C. while not in use. The production of the anti-AtAPY1 antibodies used is described by Steinebrunner et al. (2003). The crude immune and pre-immune sera were purified using protein A-Sepharose following the protocol described by Martin (1982) with the slight modification that the buffers used were azide-free. The protein-A purified sera were both used at a 1:1000 dilution in leaf stomatal aperture studies. The concentration of the immune and pre-immune sera, determined by Bradford assay (Bio-Rad), was 10.2 μg/mL and 7.7 μg/mL, respectively.
(§3) After treatment, photos of stomata were taken using a light microscope at 20×. Stomatal aperture width was measured using the image processing software ImageJ. Typically, photos were taken of 70 to 90 stomata per treatment of which only 50 stomata were measured for each treatment. For each treatment the ratio of closed stomata (width of 0) to open stomata was determined for all stomata imaged and this ratio was maintained in the 50 stomata that were measured for each treatment. Data shown uses apertures determined as width/length, however data in all studies also obtained as width only and generally width/length and width only data are in agreement with each other. Statistical significance of the measurements for the treatments was determined using the Student's t test in Microsoft Excel.

[2] = system: stomata (guard cells) in whole leaves; experiment: Stomatal aperture closure studies, whole leaves in the light; details: for effect on ABA-induced stomatal closure / effect on ATPγS-induced stomatal closure: co-incubation
Description: as §1, §2, §3

[3] = system: guard cells of x-luc1 and x-luc9 ecto-luciferase lines; experiment: Ecto-luciferase luminescence imaging of extracellular ATP in epidermal peels
Description: Ecto-luciferase Construct and Plant Transformation: The nucleotide sequence for the 24 amino acid, cleavable signal peptide from the Brassica pollen coat protein, S-locus cysteine-rich protein (SCR13; AF195626) was used to target luciferase for secretion (Schopfer et al., 1999). The signal peptide was incorporated at the N-terminus of the luciferase gene by PCR and the SCR13 signal peptide modified luciferase PCR product was then ligated into the binary vector pLBJ21. This construct was then transformed into Agrobacterium tumefaciens strain GV3101 (pMP90) and then transformed into Arabidopsis plants (Col-0) using the floral dipping method (Clough and Bent, 1998). Transgenic plants were selected by planting on solidified Murashige and Skoog (MS) medium (4.3 g/L Murashige and Skoog salts (Sigma), 0.5% (w/v) MES, and 1.0% (w/v) agar, raised to pH 5.7 with 5 M KOH) containing 50 μg/mL kanamycin. Segregation of T3 generation on kanamycin plates was analysed in order to obtain homozygous lines. Plants showing kanamycin resistance were checked for luciferase activity by growing transgenic plants in MS medium for 10 days and then transferring the whole seedlings into test tubes. Luminescence measurements were performed by placing the test tubes in the light-tight housing of the luminometer reader (Dynatech). Experimental solutions with luciferin substrate with and without 1 mM ATP were injected by an automatic injector, and after 3 seconds counting started at 0.2 second time intervals.
Imaging of Luminescence in Ecto-luciferase Plants: Ecto-luciferase seeds were surface-sterilized, stratified in the dark in 4° C. for at least three days and then planted directly on a cellophane membrane placed upon solidified MS with 1.0% (w/v) agar. Planted plates were placed upright in a culture chamber and grown at 23° C. under 24-h fluorescent light for 7 days. Plates were then reoriented so that the solidified MS medium was at the bottom of the plate and the seedling was able to grow up into the empty space of the petri dish. Seedlings were then allowed to mature for up to 4 weeks under identical temperature and light settings. For “dark” studies petri dishes of 3-4 week old plants were placed in a dark chamber for 24 hours prior to use in the studies.
Mature basal leaves were excised from x-luc1 and x-luc9 plants 3-4 weeks old. Peels were taken and then immediately floated with the abaxial side up in 40 μL, of Arabidopsis leaf buffer on a microscope slide and the chemical being tested in either light or dark conditions depending on the experimental setup. The placing of the peels within their respective solution was considered time zero. Peels were treated for a minimum of 5 minutes before luciferin and flash buffer were added to the solution. […] Luminescence was integrated over 120 seconds, High Gain, Read Out set to slow, using 4×4 pixel binning with Cosmic Suppression on, Background Correction off, and Flatfield Correction off with the filter set to Photo.
All luminescence analysis was conducted using the indiGO Analysis Software (version 2.0.0.26). All images consisted of a photographic image in grayscale with an overlaid luminescence image in pseudo color. […]

[4] = system: stomata (guard cells) in epidermal peels; experiment: Stomatal aperture opening studies, epidermal peels in the dark
Description: as §1, §2, §3

H2O2 in guard cells = experiment: Detection and quantification of H2O2 (H2DCFDA fluorescence); details: co-incubation (data not shown)
Description: (§4) Detection and Quantification of H2O2 and NO: Col-0 plants were grown on soil for 2 to 4 weeks under continuous light at 21° C. Plants were placed in the dark for 24 h to ensure closure and then transferred to the light for 1 h. After 1 h in the light, mature basal leaves were excised and blended in a Waring blender on the low setting for approximately 10 s to isolate epidermal tissues, and the tissues were placed in 3 mL of 30 mM KCl, 10 mM Mes-KOH, pH 6.16 buffer in light for 2 h (Pei et al., 2000; Murata et al., 2001). DAF-2 DA and H2DCFDA were dissolved in DMSO to produce 5 mM and 10 mM stock solutions, respectively, and these were stored at −20° C. in 30 μL, aliquots. Fifty μM H2DCFDA or 15 μM DAF-2 DA was added to the medium in the dark, and after 30 min, 10 μM ABA, 200 μM ATPγS, or buffer (ATP control) was also added to the medium in the dark for 30 min. Peels were then rinsed by decanting the treatment solution and adding 3 mL fresh leaf buffer to the peels. Peels were rinsed twice as described. A peel from each of the three treatments (ABA, ATPγS and buffer) were placed on the same microscope slide and observed sequentially. A second study was staggered 30 to 45 min after the first by loading the H2DCFDA or DAF-2 DA dye to new peels 30 to 45 min after the first round of dye was added. Confocal laser scanning microscopy (CLSM) was performed with a Leica SP2 AOBS confocal microscope (Leica Microsystems, Bannockburn, Ill., USA). Laser power was set at 15%, with an excitation of 488 nm and an emission of 525 nm. A series of 0.5 μm optical sections with average intensity projection along the z axis were collected and made into one 2D image with greater focal depth. All images were obtained with the same software scanning settings including detector gain and laser intensity settings.

[5] = system: stomata (guard cells) in whole leaves; experiment: Stomatal aperture opening studies, whole leaves in the dark
Description: as §1
as §2, with “The crude immune and pre-immune sera were purified using protein A-Sepharose following the protocol described by Martin (1982) with the slight modification that the buffers used were azide-free. The protein-A purified sera were both used at a 1:1000 dilution in leaf stomatal aperture studies.” left out
as §3

NO in guard cells = experiment: Detection and quantification of NO (DAF-2 DA fluorescence); details: co-incubation (data not shown)
Description: as §4

[6] = co-incubation, epidermal peel studies (data not shown)
[7] = 30 μM, whole leaf studies (not shown)
[8] = co-incubation, 30 μM, leaves (data not shown)

With `Nc1ncnc2c1ncn2[C@@H]1O[C@H](COP(=O)(O)OP(O)(O)=S)[C@@H](O)[C@H]1O` [ADPβS] as the compound, how does the “threshold for nucleotide-induced stomatal closure” value ([1]; epidermal peel studies, light) read?
Its value is “same threshold”.

And the “threshold for nucleotide-induced stomatal closure” value ([2]; whole leaf studies, compared with peel studies (150 to 200 μM; not shown))?
The value was “the same as found in the peel studies”.

And the “ecto-luciferase luminescence of stomata, average” value ([3]; 200 μM, 5 min, open stomata (data not shown))?
The value was 2.75 cps.

Which results are given for `Nc1ncnc2c1ncn2[C@@H]1O[C@H](COP(O)(O)=S)[C@@H](O)[C@H]1O` [AMPS]?
effect on stomatal aperture ([1]; 200 μM, dose-response tests, summary statement): neither 15 μM nor 200 μM AMPS has any effect; effect on stomatal aperture ([1]; 250 μM, epidermal peels, light, 1 h): no effect on stomatal aperture; effect on stomatal aperture ([4]; 15 μM, darkness, 1 h): no effect on stomatal aperture

Which results are given for `Nc1ncnc2c1ncn2[C@@H]1O[C@H](COP(=O)(O)OP(=O)(O)OP(=O)(O)O)[C@@H](O)[C@H]1O` [ATP]?
ecto-luciferase luminescence, average ([3]; 1 mM, 5 min or longer, x-luc1 and x-luc9 lines, centered around guard cells): 4.75 counts per second (cps); ecto-luciferase luminescence of pavement cells, average ([3]; 1 mM, pavement cells of the epidermis): 1.35 cps

For `CC(=O)N[C@@H](CS)C(=O)O` [NAC, N-acetyl-L-cysteine], which “effect on ABA- and ATPγS-induced H2DCFDA fluorescence” value (H2O2 in guard cells) is on record?
Its value is “blocked”.

With `Cc1cccc(NS(=O)(=O)c2ccc(-c3ccccc3)cc2)c1` [NGXT 191, N-(3-methylphenyl)-4-biphenylsulfonamide] as the compound, how does the “effect on stomatal aperture” value ([1]; 7.5 μg/mL, epidermal peels, light, 1 h) read?
The value was “induced stomatal closure”.

Which “effect on stomatal aperture” value ([1]; 100 μM alone, epidermal peels, light) does the source give for `Cc1nc(N=Nc2ccc(S(=O)(=O)O)cc2S(=O)(=O)O)c(COP(=O)(O)O)c(C=O)c1O` [PPADS, pyridoxalphosphate-6-azo-phenyl-2′,4′-disulphonic acid] here?
Its value is “no effect by itself”.

And the “effect on NGXT 191-induced stomatal closure” value ([1]; co-incubation, 100 μM, with 7.5 μg/mL NGXT 191, epidermal peels)?
Its value is “blocked”.

And the “effect on ABA-induced stomatal closure” value [1, 6]?
Its value is “partially block”.

What about the “effect on ATPγS-induced stomatal closure” value [1, 6] of the same compound?
The value was “block”.

What about the “effect on stomatal aperture” value ([2]; 100 μM alone, leaves, light) of the same compound?
Its value is “no effect alone”.

And the “effect on ABA-induced stomatal closure” value ([2]; 100 μM, with 10 μM ABA, leaves)?
Its value is “partially blocked”.

And the “effect on ATPγS-induced stomatal closure” value ([2]; 100 μM, with 200 μM ATPγS, leaves)?
Its value is “blocked”.

And the “effect on stomatal aperture” value ([4]; 100 μM alone, opening studies)?
The value was “no effect alone”.

And the “effect on light-induced stomatal opening” value ([4]; co-incubation, 100 μM)?
Its value is “partially blocked”.

And the “effect on ATPγS-induced stomatal opening” value ([4]; co-incubation, 100 μM, with 15 μM ATPγS)?
The value was “blocked”.

What about the “effects in opening studies compared with epidermal peels” value ([5]; whole leaves (data not shown), alone, on ATPγS-induced and on light-induced opening) of the same compound?
The value was “the same effects”.

How did the “effect on stomatal aperture” value ([2]; 30 μM alone, closure studies, leaves) turn out when `Nc1c(S(=O)(=O)O)cc(Nc2ccc(Nc3nc(Cl)nc(Nc4cccc(S(=O)(=O)O)c4)n3)c(S(=O)(=O)O)c2)c2c1C(=O)c1ccccc1C2=O` [RB2, reactive blue 2] was run?
The value was “no effect alone”.

What about the “effect on ABA-induced stomatal closure” value [2, 7] of the same compound?
Its value is “partially block”.

What about the “effect on ATPγS-induced stomatal closure” value [2, 7] of the same compound?
Its value is “block”.

What about the “effect on stomatal aperture” value ([5]; 30 μM alone, opening studies, leaves) of the same compound?
The value was “no effect by itself”.

What about the “effect on ATPγS-induced stomatal opening” value [5, 8] of the same compound?
Its value is “block”.

And the “effect on light-induced stomatal opening” value [5, 8]?
The value was “partially block”.

How did the “effect on stomatal aperture” value ([2]; 7.5 μg/mL, whole leaves (data not shown)) turn out when `O=C(Nc1cccc([N+](=O)[O-])c1)c1cccc(S(=O)(=O)Nc2ccc(Br)cc2)c1` [apyrase inhibitor #13, 3-{[(4-bromophenyl)amino]sulfonyl}-N-(3-nitrophenyl)benzamide] was run?
Its value is “caused stomatal closure”.

How did the “effect on ABA- and ATPγS-induced DAF-2 DA fluorescence” value (NO in guard cells) turn out when `CC1(C)N([O])C(c2ccc(C(=O)O)cc2)=[N+]([O-])C1(C)C` [cPTIO] was run?
The value was “blocked”.
